Test results published in publication PMC9321647, “Curcumin-Based β-Diketo Ligands for Ga^3+: Thermodynamic Investigation of Potential Metal-Based Drugs” (Pharmaceuticals, 2022).
Read-outs that look alike come from different tables or passages of the source.

How the values were obtained:
[1] = Keto-enol/diketo tautomer amounts by 1H NMR; assay type: physicochemical; conditions: molar percentage, MeOD-d4, 298 K; for KE (%) amount of keto–enol form: for 2 includes KE form of the Z isomer (6%)
Method: NMR spectra were recorded by means of a Bruker Biospin FT-NMR AVANCE III HD (600 MHz) spectrometer equipped with a CryoProbe BBO H&F 5 mm in inverse detection. The nominal frequencies were 150.90 MHz for ^13C and 600.13 MHz for ^1H, respectively. For each sample, 1–5 mg were weighed and diluted up to 0.6 mL with a proper solvent in a 5 mm NMR tube; 90° pulse was calibrated for each sample, and standard NMR parameters were used to achieve quantitative results (relaxation delay, 10 s). Proton and carbon chemical shifts are given in parts per million (ppm) versus external TMS and were determined by reference to the solvent residual signals. Typical 2D homo- and heteronuclear techniques were used for assignment, i.e., ^1H,^1H COSY, ^1H,^13C HSQC, ^1H,^13C HMBC. NMR investigations of Ga^3+:L systems were performed in MeOD-d4 by adding small amounts of a Ga(NO3)3 solution (10 μL each) to 1 mM ligand solution (0.6 mL) until reaching the desired metal-to-ligand molar ratio. The complexation reaction is fast, and spectra were registered few minutes after the addition. Two-dimensional ^1H,^13C heteronuclear multiple bond correlation (HMBC) experiments (hmbcgpndqf in Bruker library) were performed via heteronuclear zero and double quantum coherence, optimized on long-range couplings (^3/4JHC = 8 Hz), with no decoupling during acquisition, and gradient pulses were used for selection. The relative percentages of the isomeric forms were estimated on the basis of the NMR data. Particularly, ^1H NMR spectra were acquired in quantitative conditions being D1 (relaxation delay) at least five times the T1 of the slowest relaxing signal of interest. The raw data were Fourier-transformed, and then the processing was performed by zero filling (SI = TD), line broadening (lb 0.3 Hz), accurate phasing and correcting the baseline. The most isolated signals were selected for integration, i.e., the vinyl protons (H-3 and H-4), and an average of the integrated area (A) of H-3 and H-4 was used for relative quantitation, according to the following equation: %Tautomeri=(A(H−3)i+(A(H−4)i)/2/∑i(A(H−3)i+(A(H−4)i)/2×100

[2] = DPPH radical-scavenging assay; conditions: free ligand
Method: The antioxidant activity of compounds 4 and 5 and their Ga^3+ metal complexes at the M:L 1:1 and 1:2 molar ratio was evaluated in terms of hydrogen-donating or radical scavenging ability using a stable DPPH radical, 1,1-diphenyl-2-picrylhydrazyl radical, following the procedure previously reported. The percentage of inhibition (%In) of the DPPH radical by each sample was calculated according to the following formula: %In=A0−At/A0×100 where A0 represents the absorbance of the control (DPPH radical) at time 0, while At refers to the absorbance of the mixture antioxidant/DPPH at time t (120 min). Values of absorbance were corrected considering volume dilution. All the determinations were performed in duplicate.

[3] = system: HCT116 colon carcinoma cells; assay: MTT cell viability assay; assay type: cell-based, Human; conditions: mean
Method: Human colorectal carcinoma HCT116 cells (#91091005, ECACC) were grown in an IMDM medium (Biowest) supplemented with 2 mM glutamine, 100 IU/mL penicillin, 100 μg/mL streptomycin and 10% FBS (Gibco). The cell lines were grown at 37 °C in a humidified incubator containing 5% CO2. The cells were verified to be mycoplasma-free and passaged < 3 months. The inhibition of cell proliferation was measured by colorimetric 3-(4,5-dimethylthiazol-2-yl)-2,5-diphenyltetrazolium bromide (MTT) assay. GI50 concentrations were determined using the CompuSyn software version 1.0 (ComboSyn, Inc., Paramus, NJ USA) (free download via www.combosyn.com, accessed on 30 May 2022), and statistical analyses were performed using the GraphPad PRISM software (version 6.01 for Windows, GraphPad Software, San Diego, California USA GraphPad Prism) using unpaired t-test. Data were considered to be statistically significant if p < 0.05 (*), p < 0.01 (**), p < 0.001(***) and p < 0.0001 (****).

[4] = Spectrophotometric pH titrations of ligands (protonation constants, pKa); assay type: physicochemical; conditions: 298 K; for logβ011 overall protonation constant / logβ012 overall protonation constant / logβ013 overall protonation constant: HypSpec, spectrophotometric data; for pKa: aqueous solution (methanol stock diluted in water)
Method: UV–visible spectra were recorded with a JASCO V-570 UV/Vis/NIR spectrophotometer at 298 K in the 250–600 nm spectral range employing quartz cells (1 cm optical path). To perform spectrophotometric titrations, ligands (denoted generally as L in the following) were dissolved in methanol to give a mother solution (2.50 mM), that was then diluted in water in order to obtain a final concentration of 50 μM. The metal/ligand (M:L) solutions were obtained by adding appropriate quantities of Ga(NO3)3 as methanol solutions (5–10 mM) in order to obtain the metal-to-ligand 1:1 molar ratio (L = 50 μM and V = 25 mL). For both L and M:L systems, pH (initial value of about 5) was varied by adding small amounts (<1 μL) of concentrated NaOH (4 M) up to ca. pH 11, thus to consider volume variations negligible. To evaluate the complexation ratio, constant additions of the M solution (10 µL each time, M = 10^–2 M) were dropped into the ligand solution (V = 25 mL, L = 50 μM) using a micropipette in order to reach different M:L molar ratios. A constant ionic strength (NaNO3, 0.1 M) was maintained in all experiments. Spectrophotometric investigations of iron(III) systems were performed in the same conditions; the Fe^3+ solution was freshly prepared in methanol starting from Fe(NO3)3·9H2O. The overall protonation constants (logβqr) and the overall stability constants of metal complexes (logβpqr) were evaluated from spectrophotometric data. The stability constants (βpqr), defined by the following equations:(3) pM^m++qL^l^−+rH^+⇌MpLqHr(mp−lq+r) (4) βpqr=[MpLqHr(mp−lq+r)]/[M^m+]^p·[L^l−]^q·[H^+]^r where L is the ligand in the completely dissociated form and H is proton, were refined using least-squares calculation in HypSpec. The results of least-squares calculation include the standard deviations and correlation coefficients of the refined parameters. The quantities are obtained by performing error propagation calculation from the experimental errors onto the parameters. The stability constant refinement furnishes least-squares estimates of the standard deviation, σ, of the stability constant β. The error on logβ is calculated as follows: σ(logβ) = [log(β + σ) − log(β − σ)]/2.

[5] = calculated from logβ values, * = keto–enol moiety dissociation

| Compound | KK (%) amount of diketo form [1] [%] | KE (%) amount of keto–enol form [1] [%] | IC50 [2] [µM] | GI50 ([3]; HCT116, 48 h of treatment) [µM] | logβ011 overall protonation constant [4] | logβ012 overall protonation constant [4] | logβ013 overall protonation constant [4] | pKa1 [4, 5] | pKa2 [4, 5] | pKa3 [4, 5] | GI50 ([3]; Homo sapiens, HCT-116, HCT116, 48 h of treatment) [µM] | pKa ([4]; calculated from logβ values, * = keto–enol moiety dissociation, read-out: pKa1) | pKa ([4]; calculated from logβ values, * = keto–enol moiety dissociation, read-out: pKa2) | pKa ([4]; calculated from logβ values, * = keto–enol moiety dissociation, read-out: pKa3) |
| --- | --- | --- | --- | --- | --- | --- | --- | --- | --- | --- | --- | --- | --- | --- |
| 2-((4Z,6E)-5-hydroxy-7-(4-hydroxyphenyl)-4-((E)-3-(4-hydroxy-3-ethoxyphenyl) acryloyl) hepta-4,6-dien-1-yl)isoindoline-1,3-dione [Compound 5] | 30 | 70 | 32 | 8.76 | 10.44 (3) | 20.45 (2) | 29.58 (4) | 9.13 (6) | 10.01 (5) | 10.44 (3) | – | – | – | – |
| COc1cc(/C=C/C(=O)C(CCCN2C(=O)c3ccccc3C2=O)C(=O)/C=C/c2ccc(O)c(OC)c2)ccc1O [Compound 4] | 53 | 47 | 20 | – | 10.78 (4) | 20.44 (6) | 29.44 (6) | – | – | – | 5.36 | 9 | 9.66 | 10.8 |
